Experimental data published in the NIST ThermoML archive (doi:10.1016/j.jct.2010.04.013).

Experiment: mn = molality of the nth substance listed, in mol/kg
Settings: 101 kPa, Liquid; for mass density: Vibrating tube method; for speed of sound: Pulse-echo method

[O-][Cl+3]([O-])([O-])[O-].[O-][Cl+3]([O-])([O-])[O-].[Sr+2] [strontium perchlorate] + CO
Settings	mass density, 283.15 K [kg/m3]	mass density, 288.15 K [kg/m3]	mass density, 293.15 K [kg/m3]	mass density, 298.15 K [kg/m3]	mass density, 303.15 K [kg/m3]	mass density, 308.15 K [kg/m3]	mass density, 313.15 K [kg/m3]	speed of sound, 298.15 K [m/s]
m1 = 0.06323	814.327	809.615	804.898	800.168	795.42	790.66	785.866	1108
m1 = 0.07864	817.708	812.989	808.269	803.533	798.779	794.012	789.214	1109.7
m1 = 0.09378	821.019	816.297	811.567	806.826	802.074	797.297	792.492	1111.1
m1 = 0.1093	824.484	819.755	815.021	810.274	805.504	800.727	795.92	1112.6
m1 = 0.1234	827.609	822.874	818.133	813.381	808.608	803.819	799.011	1114
m1 = 0.154	834.44	829.692	824.939	820.172	815.389	810.594	805.771	1116.9
m1 = 0.1834	841.064	836.304	831.54	826.763	821.965	817.158	812.326	1120
m1 = 0.2113	847.498	842.723	837.945	833.161	828.36	823.539	818.693	1122.7
m1 = 0.2388	853.778	848.993	844.206	839.406	834.589	829.75	824.9	1125.5
m1 = 0.266	860.252	855.456	850.654	845.848	841.026	836.183	831.317	1128.2
m1 = 0.2946	867.084	862.275	857.464	852.642	847.803	842.939	838.069	1131.4

[O-][Cl+3]([O-])([O-])[O-].[O-][Cl+3]([O-])([O-])[O-].[Sr+2] [strontium perchlorate] + C[S+](C)[O-]
Settings	mass density, 293.15 K [kg/m3]	mass density, 298.15 K [kg/m3]	mass density, 303.15 K [kg/m3]	mass density, 313.15 K [kg/m3]	mass density, 323.15 K [kg/m3]	mass density, 333.15 K [kg/m3]	speed of sound, 298.15 K [m/s]
m1 = 0.02541	1105.84	1100.82	1095.81	1085.8	1075.79	1065.77	–
m1 = 0.03174	1107.23	1102.22	1097.22	1087.21	1077.21	1067.2	1485.7
m1 = 0.04183	1109.48	1104.48	1099.47	1089.48	1079.49	1069.48	1486.1
m1 = 0.05362	1112.12	1107.12	1102.12	1092.14	1082.16	1072.17	1486.7
m1 = 0.06535	1114.75	1109.75	1104.76	1094.79	1084.82	1074.85	1487.3
m1 = 0.08369	1118.88	1113.89	1108.92	1098.96	1089.01	1079.07	1488.2
m1 = 0.1061	1123.96	1118.98	1114.01	1104.08	1094.14	1084.22	1489.3
m1 = 0.1303	1129.53	1124.56	1119.6	1109.69	1099.79	1089.89	1490.4
m1 = 0.1512	1134.32	1129.36	1124.42	1114.52	1104.65	1094.78	1491.5
m1 = 0.1771	1140.37	1135.43	1130.49	1120.62	1110.77	1100.92	1492.6
m1 = 0.1981	1145.33	1140.39	1135.46	1125.62	1115.78	1105.96	1493.7
